The source of these data is paper PMC12038163 (Research, 2025).

A short description of this data set: in vivo. The following applies: male, Sprague-Dawley, rat, ip, 10 mg/kg.

`Cc1cccc(-c2ccc(-c3cc4cnc(NC5CC5)nc4n(CCCCCC(=O)NO)c3=O)c(Cl)c2)n1` [ZMF-25]: the AUC(0-inf) (as a rule, the area under the concentration-time curve extrapolated to infinity) was 9100 ng·h/mL; the AUC(0-t) (usually the area under the concentration-time curve up to a stated or last time point) worked out at 9070 ng·h/mL; the CL/F – broadly, clearance divided by bioavailability, as obtained after extravascular dosing – was 30 mL/min/kg; the highest level (Cmax) was 5110 ng/mL. For the same compound, the half-life (commonly how long it takes for the measured level to halve) was 1.4 ± 0.3 h.
